We go through four compounds from EP0123528B1, “Pharmaceutical composition for the treatment of hair loss” (Mortimer, Christopher Harry, Dr., priority 1983, dated 1984).

For one data set, the system named is common baldness in men. Kind of data set: Unit Area Trichogram (hair density). The data set is classed as in vivo. The conditions noted are these: for producing hair growth in common baldness: alone: oestradiol benzoate 0.1%, medroxyprogesterone acetate 0.1%, 3,3-,5-triiodo-L-thyronine 20 pg in 3 ml of solution, or any two of the three.
The nature of data set [1]: Semen analysis during treatment. The conditions noted are these: after 6 months of systemic treatment. It is filed as in vivo, patient. The method, then: Initially […] began treatment with medroxyprogesterone acetate starting with 5 mg daily increasing to 40 mg daily at 6 months. At this time the following hormone results were obtained: After 6 months of the same dose of systemic medroxyprogesterone acetate plus Trichogen II the following results were obtained: […]

The nature of data set [2]: Hormone results during treatment. The conditions noted are these: patient, after 6 months of systemic treatment. The data set is classed as in vivo. The method, then: Initially […] began treatment with medroxyprogesterone acetate starting with 5 mg daily increasing to 40 mg daily at 6 months.
At this time the following hormone results were obtained:
After 6 months of the same dose of systemic medroxyprogesterone acetate plus Trichogen II the following results were obtained: […]

Turning to `N[C@H](Cc1cc(I)c(Oc2ccc(O)c(I)c2)c(I)c1)C(=O)O` [3,3-,5-triiodo-D-thyronine free acid, 3,3-,5-Triiodo-D-thyronine free acid], the “substitute for the -L-form of 3,3-,5-triiodothyronine” value in the data set on common baldness in men (topical, in any concentration) is given as “not an effective substitute”.

With `N[C@@H](Cc1cc(I)c(Oc2ccc(O)c(I)c2)c(I)c1)C(=O)O` [3,3-,5-triiodo-L-thyronine], in the data set with common baldness in men (topical), the “producing hair growth in common baldness” value is listed as “not effective”.

With `CC(=O)O[C@]1(C(C)=O)CC[C@H]2[C@@H]3C[C@H](C)C4=CC(=O)CC[C@]4(C)[C@H]3CC[C@@]21C` [medroxyprogesterone acetate], in data set [1] (patient (previous orchidopexy), n greater than 80 millions), the “Semen analysis: Total count” value is 5 millions. Further, the “Semen analysis: Motility” value in data set [1] (patient, n greater than 60%) is on record as 10%. Further, the “Semen analysis: Abnormal forms” value in data set [1] (patient, n up to 25%) is reported as 35%. Moreover, in the data set on common baldness in men (patient, after 6 months of systemic treatment, before treatment 215, n 232—340), the “Meaningful hair density (hairs greater than 40 µm in diameter/cm^2), Frontal” value is reported as 179 (n 232—340) hairs/cm^2. Moreover, the “Meaningful hair density (hairs greater than 40 µm in diameter/cm^2), Occipital” value with common baldness in men (patient, after 6 months of systemic treatment, before treatment 246, n 213—317) is on record as 271 (n 213—317) hairs/cm^2. In the data set on common baldness in men (patient, after 6 months of systemic treatment, before treatment 251, n 261—356), the “Total hair density, Occipital” value was 280 (n 261—356) hairs/cm^2. Moreover, the “Total hair density, Frontal” value in the data set with common baldness in men (patient, after 6 months of systemic treatment, before treatment 263, n 256—393) is reported as 248 (n 256—393) hairs/cm^2. For the same compound, the “producing hair growth in common baldness” value in the data set with common baldness in men (topical) is recorded as “not effective”. The same compound returned a Testosterone in data set [2] (5 mg daily increasing to 40 mg daily, n 10—32) of 27.0 nmol/L. The compound also gave a Dihydrotestosterone in data set [2] (5 to 40 mg daily, n 0.7—2.7) of 2.1 nmol/L. Also, the SHBG in data set [2] (5 to 40 mg daily, n 18—40) amounted to 36.0 nmol/L. Moreover, in data set [2] (5 to 40 mg daily, n 50—180), the Oestradiol turned out to be 171.0 pmol/L. For the same compound, the “17 Alpha hydroxyprogesterone” value in data set [2] (n 0.6—6.0) stood at 10.1 nmol/L. For the same compound, the Androstenedione in data set [2] (n 3.1—10.0) came to 4.9 nmol/L. In addition, in data set [2] (n 5—9), the “Dehydroepiandrosterone sulphate (DHEAS)” value was 9.4 µmol/L.

As to `C[C@]12CC[C@@H]3c4ccc(OC(=O)c5ccccc5)cc4CC[C@H]3[C@@H]1CC[C@@H]2O` [oestradiol benzoate], the “producing hair growth in common baldness” value in the data set on common baldness in men (topical) is “not effective”.
